What all share (type): biochemical
In one assay the target is T1, FGFR1 (Homo sapiens, UniProt P11362, C488A/C584S).
T1 construct: P1351.pET N6 BI-PTP FGFR A458-E765-X C488A, C584S; made in house; host or cells: E. coli (PTP1B co-expressed)
Description: AlphaScreen kinase assay, FGFR1. Conditions: read-out: IC50, activity toward kinase FGFR.

In the next assay the target is T2, Flt1 (Homo sapiens, UniProt P17948).
T2 construct: P1826.pETN6 BI-PTP FLT1 M799-D1165-X WT; His6 (N); made in house; host or cells: E. coli (PTP1B co-expressed)
T2 sequence (P17948 with tags, fused parts or gaps): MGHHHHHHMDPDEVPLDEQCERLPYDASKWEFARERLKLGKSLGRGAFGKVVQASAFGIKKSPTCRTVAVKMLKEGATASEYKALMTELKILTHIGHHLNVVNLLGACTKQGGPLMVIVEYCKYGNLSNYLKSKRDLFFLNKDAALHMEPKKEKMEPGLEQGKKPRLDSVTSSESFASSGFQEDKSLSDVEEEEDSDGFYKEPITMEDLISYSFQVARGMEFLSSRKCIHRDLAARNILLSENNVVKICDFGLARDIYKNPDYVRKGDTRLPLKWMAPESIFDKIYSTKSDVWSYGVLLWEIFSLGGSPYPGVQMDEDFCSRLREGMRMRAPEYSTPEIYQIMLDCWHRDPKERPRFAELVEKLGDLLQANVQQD
Description: AlphaScreen kinase assay, Flt1. Conditions: read-out: IC50, activity toward kinase Flt1. For orientation: Alpha assays give light when donor and acceptor beads are brought close together.

The next assay deals with T3, Fms (Homo sapiens, UniProt P07333).
T3 construct: purchased Upstate Biotechnology
As to the kind of experiment: AlphaScreen kinase assay, Fms. The note with it: read-out: IC50, activity toward kinase Fms.

For another assay, the target named is T4, Kdr (Homo sapiens, UniProt P35968).
T4 construct: purchased Invitrogen (assay run by Invitrogen)
As to the kind of experiment: Z'-Lyte FRET kinase assay (Invitrogen), Kdr. Conditions: read-out: IC50, activity toward kinase Kdr.

Another assay deals with T5, Kit (Homo sapiens, UniProt P10721).
T5 construct: P1332.N6 BI PTP KIT M552-K948-X COD; His6 (N); made in house; host or cells: E. coli (PTP1B co-expressed)
Description: AlphaScreen kinase assay, Kit. Conditions: read-out: IC50, activity toward kinase Kit.

The next assay has as its target T6, Ret (Homo sapiens, UniProt P07949).
T6 construct: P1378.pET-SF BI-PTP RET H661-R1012 HIS; made in house
T6 sequence (P07949 with tags, fused parts or gaps): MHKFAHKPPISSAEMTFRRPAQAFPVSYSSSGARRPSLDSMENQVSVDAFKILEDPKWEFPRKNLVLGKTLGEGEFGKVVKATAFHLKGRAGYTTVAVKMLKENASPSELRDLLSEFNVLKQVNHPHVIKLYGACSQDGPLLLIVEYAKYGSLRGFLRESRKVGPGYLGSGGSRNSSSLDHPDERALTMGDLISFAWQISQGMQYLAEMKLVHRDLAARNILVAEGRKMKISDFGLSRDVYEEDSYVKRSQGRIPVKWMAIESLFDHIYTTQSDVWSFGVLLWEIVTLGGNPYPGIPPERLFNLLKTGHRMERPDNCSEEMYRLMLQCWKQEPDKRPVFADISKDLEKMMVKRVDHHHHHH
Description: AlphaScreen kinase assay, Ret. The note with it: read-out: IC50, activity toward kinase Ret.

For another assay, the target named is T7, B-Raf (Homo sapiens, UniProt P15056).
T7 construct: purchased Upstate Biotechnology
Description: AlphaScreen kinase assay, B-Raf. The note with it: read-out: IC50, activity toward kinase B-Raf.

A further assay concerns the target T8, B-Raf V600E (Homo sapiens, UniProt P15056, V600E).
T8 construct: P4254. pFastBacBD-CDC37 BRAF D437-K722-X, V600E; His6 with pFastBac HT leader (TEV site) (N); made in house; host or cells: Sf9 (baculovirus; chaperone CDC37 co-expressed)
Description: AlphaScreen kinase assay, B-Raf V600E. The note with it: read-out: IC50, activity toward kinase B-Raf V600E.

The next assay concerns the target T9, Jnk3 (Homo sapiens, UniProt P53779).
T9 construct: purchased Upstate Biotechnology
As to the kind of experiment: AlphaScreen kinase assay, Jnk3. Conditions: read-out: IC50, activity toward kinase Jnk3.

The target in another assay is T10, c-Raf-1 (Homo sapiens, UniProt P04049).
T10 construct: purchased Upstate Biotechnology
As to the kind of experiment: AlphaScreen kinase assay, c-Raf-1. The note with it: read-out: IC50, activity toward kinase c-Raf-1.

Bounds are passed on as bounds.

T9 sequence (P53779 whole entry): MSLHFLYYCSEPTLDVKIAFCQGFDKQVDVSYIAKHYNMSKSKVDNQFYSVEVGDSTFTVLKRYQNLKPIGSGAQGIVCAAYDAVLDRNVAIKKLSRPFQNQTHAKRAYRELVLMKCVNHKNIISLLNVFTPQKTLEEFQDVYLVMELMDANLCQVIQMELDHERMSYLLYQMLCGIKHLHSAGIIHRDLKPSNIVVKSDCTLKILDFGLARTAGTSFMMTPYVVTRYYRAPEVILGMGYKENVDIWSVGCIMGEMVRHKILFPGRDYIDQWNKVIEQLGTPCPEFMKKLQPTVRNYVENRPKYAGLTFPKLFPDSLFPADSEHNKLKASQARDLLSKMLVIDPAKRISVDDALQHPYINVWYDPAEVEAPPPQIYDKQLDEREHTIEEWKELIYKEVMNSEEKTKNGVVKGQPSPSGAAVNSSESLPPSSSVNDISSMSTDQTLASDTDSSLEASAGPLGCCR
T7 sequence (P15056 whole entry): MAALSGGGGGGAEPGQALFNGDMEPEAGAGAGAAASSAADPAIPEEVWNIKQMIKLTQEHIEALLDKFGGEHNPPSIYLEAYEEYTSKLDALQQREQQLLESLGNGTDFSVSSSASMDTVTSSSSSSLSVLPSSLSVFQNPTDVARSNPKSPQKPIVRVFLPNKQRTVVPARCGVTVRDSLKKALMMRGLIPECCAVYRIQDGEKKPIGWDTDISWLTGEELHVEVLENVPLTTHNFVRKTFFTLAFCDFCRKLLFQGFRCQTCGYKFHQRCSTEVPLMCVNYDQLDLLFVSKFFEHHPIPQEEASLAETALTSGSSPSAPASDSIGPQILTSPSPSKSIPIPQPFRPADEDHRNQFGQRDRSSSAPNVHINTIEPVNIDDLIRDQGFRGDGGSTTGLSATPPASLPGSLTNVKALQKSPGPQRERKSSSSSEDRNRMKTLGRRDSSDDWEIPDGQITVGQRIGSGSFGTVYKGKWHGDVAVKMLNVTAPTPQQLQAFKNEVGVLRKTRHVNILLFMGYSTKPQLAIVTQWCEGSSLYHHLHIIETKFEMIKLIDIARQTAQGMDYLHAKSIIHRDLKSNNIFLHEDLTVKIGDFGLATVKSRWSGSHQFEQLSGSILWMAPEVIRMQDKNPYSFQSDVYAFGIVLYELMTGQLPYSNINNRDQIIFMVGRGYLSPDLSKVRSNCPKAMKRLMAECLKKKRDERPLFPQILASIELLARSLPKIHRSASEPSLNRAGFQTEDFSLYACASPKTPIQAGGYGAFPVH
T4 sequence (P35968 20-1356): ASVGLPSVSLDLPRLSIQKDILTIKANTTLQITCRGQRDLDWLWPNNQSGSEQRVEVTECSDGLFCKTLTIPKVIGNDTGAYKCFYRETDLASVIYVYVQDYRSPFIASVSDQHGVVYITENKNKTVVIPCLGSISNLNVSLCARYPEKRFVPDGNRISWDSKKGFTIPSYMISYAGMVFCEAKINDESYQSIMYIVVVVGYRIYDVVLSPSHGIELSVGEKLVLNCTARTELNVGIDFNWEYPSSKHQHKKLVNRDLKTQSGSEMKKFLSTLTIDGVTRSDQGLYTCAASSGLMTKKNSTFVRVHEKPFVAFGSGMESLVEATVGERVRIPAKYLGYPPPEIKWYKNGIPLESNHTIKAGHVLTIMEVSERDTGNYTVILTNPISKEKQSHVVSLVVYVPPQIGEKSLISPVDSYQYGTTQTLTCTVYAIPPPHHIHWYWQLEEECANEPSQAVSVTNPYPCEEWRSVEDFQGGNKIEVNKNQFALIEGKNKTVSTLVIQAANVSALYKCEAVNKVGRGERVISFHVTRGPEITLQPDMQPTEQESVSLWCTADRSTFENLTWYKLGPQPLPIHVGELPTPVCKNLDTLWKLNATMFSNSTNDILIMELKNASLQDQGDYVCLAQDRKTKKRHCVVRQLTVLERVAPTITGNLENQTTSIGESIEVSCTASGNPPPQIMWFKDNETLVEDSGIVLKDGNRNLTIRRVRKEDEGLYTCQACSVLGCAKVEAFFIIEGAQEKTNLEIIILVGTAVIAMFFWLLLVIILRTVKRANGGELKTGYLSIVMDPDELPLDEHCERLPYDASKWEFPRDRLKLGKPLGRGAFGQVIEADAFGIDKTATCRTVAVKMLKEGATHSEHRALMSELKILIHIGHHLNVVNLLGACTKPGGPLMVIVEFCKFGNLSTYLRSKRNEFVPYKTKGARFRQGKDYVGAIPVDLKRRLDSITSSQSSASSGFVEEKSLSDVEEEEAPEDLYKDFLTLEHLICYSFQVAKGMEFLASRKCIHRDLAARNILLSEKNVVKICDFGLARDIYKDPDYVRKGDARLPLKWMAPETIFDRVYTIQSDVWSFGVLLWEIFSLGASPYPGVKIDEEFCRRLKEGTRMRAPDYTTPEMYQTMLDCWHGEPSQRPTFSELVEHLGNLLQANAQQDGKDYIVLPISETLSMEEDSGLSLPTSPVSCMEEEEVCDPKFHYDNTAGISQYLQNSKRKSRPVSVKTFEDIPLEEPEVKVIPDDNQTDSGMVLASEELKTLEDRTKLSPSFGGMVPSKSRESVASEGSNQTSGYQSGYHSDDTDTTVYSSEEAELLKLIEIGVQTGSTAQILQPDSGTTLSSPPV
T8 sequence (P15056 with tags, fused parts or gaps V600E): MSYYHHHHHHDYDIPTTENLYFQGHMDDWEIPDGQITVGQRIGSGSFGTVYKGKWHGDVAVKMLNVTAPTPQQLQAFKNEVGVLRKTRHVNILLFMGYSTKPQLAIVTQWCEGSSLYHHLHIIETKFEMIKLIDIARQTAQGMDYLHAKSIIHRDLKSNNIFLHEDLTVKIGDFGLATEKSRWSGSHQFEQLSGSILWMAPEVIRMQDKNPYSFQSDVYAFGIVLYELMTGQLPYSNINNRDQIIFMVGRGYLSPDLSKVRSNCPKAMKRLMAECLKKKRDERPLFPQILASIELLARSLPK
T3 sequence (P07333 20-972): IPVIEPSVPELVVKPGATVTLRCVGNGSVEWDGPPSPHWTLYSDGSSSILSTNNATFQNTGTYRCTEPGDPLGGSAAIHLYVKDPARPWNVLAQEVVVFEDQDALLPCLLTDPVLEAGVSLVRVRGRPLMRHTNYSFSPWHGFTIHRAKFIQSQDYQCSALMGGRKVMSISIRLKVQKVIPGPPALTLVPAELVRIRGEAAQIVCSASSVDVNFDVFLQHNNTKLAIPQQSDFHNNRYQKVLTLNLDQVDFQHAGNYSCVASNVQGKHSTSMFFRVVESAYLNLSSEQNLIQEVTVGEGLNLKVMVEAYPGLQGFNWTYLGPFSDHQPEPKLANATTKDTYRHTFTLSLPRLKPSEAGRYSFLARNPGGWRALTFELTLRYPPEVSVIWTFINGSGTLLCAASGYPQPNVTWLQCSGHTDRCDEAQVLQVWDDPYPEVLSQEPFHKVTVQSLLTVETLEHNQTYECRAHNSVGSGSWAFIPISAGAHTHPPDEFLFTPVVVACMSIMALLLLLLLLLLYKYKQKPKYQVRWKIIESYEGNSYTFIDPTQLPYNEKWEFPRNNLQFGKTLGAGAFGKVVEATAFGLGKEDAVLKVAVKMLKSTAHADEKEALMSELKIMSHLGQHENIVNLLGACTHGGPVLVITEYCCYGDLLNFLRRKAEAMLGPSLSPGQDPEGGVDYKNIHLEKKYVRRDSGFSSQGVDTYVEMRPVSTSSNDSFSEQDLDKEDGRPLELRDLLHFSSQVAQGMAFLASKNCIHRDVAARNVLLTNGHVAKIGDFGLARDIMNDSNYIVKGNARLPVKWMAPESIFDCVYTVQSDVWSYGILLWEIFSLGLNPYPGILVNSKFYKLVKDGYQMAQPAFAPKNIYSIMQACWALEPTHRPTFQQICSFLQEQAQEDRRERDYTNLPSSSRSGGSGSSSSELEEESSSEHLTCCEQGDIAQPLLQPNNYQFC
T5 sequence (P10721 with tags, fused parts or gaps): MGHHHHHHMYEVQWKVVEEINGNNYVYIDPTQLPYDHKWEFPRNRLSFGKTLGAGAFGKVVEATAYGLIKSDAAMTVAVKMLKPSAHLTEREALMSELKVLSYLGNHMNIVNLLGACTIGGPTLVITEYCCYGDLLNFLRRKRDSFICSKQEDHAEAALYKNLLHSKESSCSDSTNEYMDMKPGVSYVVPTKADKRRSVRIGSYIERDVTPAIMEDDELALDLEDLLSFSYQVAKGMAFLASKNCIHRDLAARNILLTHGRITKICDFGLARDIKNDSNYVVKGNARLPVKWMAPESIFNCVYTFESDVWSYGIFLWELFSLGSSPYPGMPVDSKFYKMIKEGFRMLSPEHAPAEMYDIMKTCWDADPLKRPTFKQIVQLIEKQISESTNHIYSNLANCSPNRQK
T10 sequence (P04049 whole entry): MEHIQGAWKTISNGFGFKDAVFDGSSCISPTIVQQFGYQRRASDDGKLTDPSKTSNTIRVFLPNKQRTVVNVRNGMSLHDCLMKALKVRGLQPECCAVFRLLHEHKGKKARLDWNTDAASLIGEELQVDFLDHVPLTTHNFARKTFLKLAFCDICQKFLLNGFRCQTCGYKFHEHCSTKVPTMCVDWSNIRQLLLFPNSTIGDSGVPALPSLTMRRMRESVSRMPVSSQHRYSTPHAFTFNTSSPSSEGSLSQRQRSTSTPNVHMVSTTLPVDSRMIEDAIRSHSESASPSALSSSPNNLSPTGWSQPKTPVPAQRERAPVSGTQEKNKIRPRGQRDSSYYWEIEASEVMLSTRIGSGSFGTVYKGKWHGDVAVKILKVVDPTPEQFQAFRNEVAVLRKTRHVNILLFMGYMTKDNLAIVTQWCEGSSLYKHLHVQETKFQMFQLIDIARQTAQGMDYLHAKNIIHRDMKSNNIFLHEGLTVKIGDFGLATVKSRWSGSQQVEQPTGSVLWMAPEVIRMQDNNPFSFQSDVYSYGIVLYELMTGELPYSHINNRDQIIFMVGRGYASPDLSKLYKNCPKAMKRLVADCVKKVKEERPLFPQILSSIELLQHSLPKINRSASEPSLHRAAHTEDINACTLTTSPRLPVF

As to `COc1ccc(F)c(C(=O)c2c[nH]c3ncccc23)c1` [Compound P-0103], the IC50 at FGFR1, on Flt1, on Fms, on Kdr, at Kit and on Ret was ≤ 10 µM in each case.
As for `Fc1ccc(NCc2c[nH]c3ncccc23)cc1` [Compound P-0144], the IC50 on Kdr was ≤ 10 µM.
`COc1cccc(C(=O)c2c[nH]c3ncccc23)c1` [Compound P-0168]: the IC50 on FGFR1, at Kdr and on Kit was ≤ 10 µM in each case.
With `Oc1ccccc1-c1c[nH]c2ncccc12` [Compound P-0182], the IC50 at Kdr is ≤ 10 µM.
For `CC(C)CNc1ccc(Cc2c[nH]c3ncccc23)cn1` [Compound P-0192], the IC50 at B-Raf, on B-Raf V600E, on FGFR1 and at Kdr was ≤ 10 µM in each case.
Consider `O=[N+]([O-])c1cccc(-c2ccnc3[nH]ccc23)c1` [Compound P-0197], for which the IC50 on Kdr was ≤ 10 µM.
As for `Cc1cc(C(=O)c2c[nH]c3nccc(-c4cccc(NS(C)(=O)=O)c4)c23)n(C)n1` [Compound P-0234], the IC50 at Kdr is ≤ 10 µM.
On to `COc1cccc(C(O)c2c[nH]c3ncc(Br)cc23)c1F` (stereo not shown) [Compound P-0242], for which the IC50 at B-Raf V600E, on FGFR1 and at Kdr was ≤ 10 µM in each case.
For the molecule `O=C(c1cc([N+](=O)[O-])ccc1F)c1c[nH]c2ncccc12` [Compound P-0243], the IC50 on B-Raf V600E and on Kdr was ≤ 10 µM in each case.
`O=C(c1ccccc1O)c1c[nH]c2ncc(Br)cc12` [Compound P-0263]: the IC50 on Jnk3 and on Kit was ≤ 10 µM in each case.
Take `CCc1cnc2[nH]cc(C(=O)c3cccc(OC)c3)c2c1` [Compound P-0267]: the IC50 at FGFR1 and on Kdr was ≤ 10 µM in each case.
`COc1ccc(C(O)c2c[nH]c3ncccc23)cc1` (stereo not shown) [Compound P-0268]: on Kdr, the IC50 was ≤ 10 µM.
In the case of `COc1ccc(CNc2ccc(Cc3c[nH]c4ncccc34)cn2)cc1` [Compound P-0274], the IC50 on B-Raf V600E, on FGFR1, on Flt1, on Fms and at Kdr was ≤ 10 µM in each case.
For the molecule `CC(C)Cc1nc(-c2ccnc3[nH]ccc23)no1` [Compound P-0288], the IC50 at Kdr is ≤ 10 µM.
With `COc1ccc(Cc2c[nH]c3nccc(-c4ccsc4)c23)cn1` [Compound P-0289], the IC50 on FGFR1, on Kdr and on Ret was ≤ 10 µM each time.
For `O=C(c1cccc(Cl)c1F)c1c[nH]c2ncc(Br)cc12` [Compound P-0299, (5-Bromo-1H-pyrrolo[2,3-b]pyridin-3-yl)-(3-chloro-2-fluoro-phenyl)-methanone], the IC50 on Kdr is ≤ 10 µM.
In the case of `c1cc(Cc2c[nH]c3ncccc23)cc(OCCOC2CCCCO2)c1` (stereo not shown) [Compound P-0326], the IC50 at FGFR1, at Flt1, on Kdr and at Kit was ≤ 10 µM in each case.
As for `COc1cccc(Cc2c[nH]c3nccc(Br)c23)n1` [Compound P-0339], the IC50 on FGFR1, at Kdr and on Ret was ≤ 10 µM each time.
In the case of `Clc1cccc(-c2ccnc3[nH]ccc23)c1` [Compound P-0427], the IC50 on Kdr and at Kit was ≤ 10 µM each time.
Turning to `c1coc(-c2c[nH]c3ncccc23)c1` [Compound P-0455], the IC50 at Flt1 and at Kdr was ≤ 10 µM throughout.
In the case of `Brc1ccnc2[nH]ccc12` [Compound P-0458], on Kdr, the concentration for half-maximal inhibition (IC50) was ≤ 10 µM.
As for `COc1cc(OC)cc(C(=O)c2c[nH]c3ncccc23)c1` [Compound P-0473], the IC50 at FGFR1, on Kdr and at Kit was ≤ 10 µM throughout.
`Cc1ccccc1-c1c[nH]c2ncccc12` [Compound P-0482]: at Kdr, the IC50 is ≤ 10 µM.
For `O=C(c1ccc(-c2cnc3[nH]ccc3c2)cc1)N1CCCC1` [Compound P-0625], the IC50 on Jnk3 and on Kit was ≤ 10 µM each time.
`O=[N+]([O-])c1cc(S(=O)(=O)NCc2c[nH]c3ncccc23)sc1Cl` [Compound P-0777]: the IC50 on B-Raf V600E, at Flt1 and on Kdr was ≤ 10 µM throughout.
Consider `Cc1cc(C(=O)c2c[nH]c3ncc(-c4cccc(N)c4)cc23)no1` [Compound P-0796], for which the IC50 on Kdr, on Kit and on Ret was ≤ 10 µM throughout.
Take `c1cc2cc(Nc3ccc(N4CCOCC4)cc3)cnc2[nH]1` [Compound P-0981]: the IC50 at B-Raf V600E and on Kdr was ≤ 10 µM throughout.
As for `CC(=O)Nc1cccc(Nc2cnc3[nH]ccc3c2)c1` [Compound P-1032], the IC50 at Jnk3 is ≤ 10 µM.
For the molecule `c1ccc2sc(-c3cnc4[nH]ccc4c3)cc2c1` [Compound P-1087], the IC50 on Jnk3 was ≤ 10 µM.
The same measure, in the same setting: then `Clc1ccc(-c2cnc3[nH]ccc3c2)s1` [Compound P-1088], with ≤ 10 µM; and `COc1ccc(Nc2ccc3cc[nH]c3n2)cc1` [Compound P-1355, (4-Methoxy-phenyl)-(1H-pyrrolo[2,3-b]pyridin-6-yl)-amine], with ≤ 10 µM.
`Clc1cccc(Nc2c[nH]c3ncccc23)c1` [Compound P-1489, (3-Chloro-phenyl)-(1H-pyrrolo[2,3-b]pyridin-3-yl)-amine]: the IC50 on Fms, on Jnk3 and at Kit was ≤ 10 µM in each case.
With `COc1cnc2[nH]cc(C(=O)c3c(F)ccc(NS(=O)(=O)c4ccc(C(F)(F)F)cc4)c3F)c2c1` [Compound P-1542, N-[2,4-Difluoro-3-(5-methoxy-1H-pyrrolo[2,3-b]pyridine-3-carbonyl)-phenyl]-4-trifluoromethyl-benzenesulfonamide], the IC50 on B-Raf, on B-Raf V600E, on c-Raf-1, at FGFR1, on Flt1 and at Fms was ≤ 10 µM throughout. In addition, the IC50 at Kit is ≤ 10 µM.
Take `COc1cnc2[nH]cc(Sc3ccccn3)c2c1` [Compound P-1561]: the IC50 on B-Raf V600E, at FGFR1 and on Jnk3 was ≤ 10 µM each time.
As for `COc1cnc2[nH]cc(C(=O)c3c(F)ccc(NS(=O)(=O)c4cccc(F)c4)c3F)c2c1` [Compound P-1581, N-[2,4-Difluoro-3-(5-methoxy-1H-pyrrolo[2,3-b]pyridine-3-carbonyl)-phenyl]-3-fluoro-benzenesulfonamide], the IC50 on B-Raf, at B-Raf V600E, at c-Raf-1, at FGFR1, on Flt1 and on Fms was ≤ 10 µM throughout. Further, the IC50 on Kit is ≤ 10 µM.
As for `O=C(c1c(F)ccc(NS(=O)(=O)c2cccc(F)c2)c1F)c1c[nH]c2ncc(Cl)cc12` [Compound P-1583, N-[3-(5-Chloro-1H-pyrrolo[2,3-b]pyridine-3-carbonyl)-2,4-difluoro-phenyl]-3-fluoro-benzenesulfonamide], the IC50 on B-Raf, on B-Raf V600E, at c-Raf-1, at FGFR1, at Flt1 and at Fms was ≤ 10 µM in each case. The IC50 at Kit was ≤ 10 µM.

Broadly, the IC50 is the concentration that gives 50% inhibition.

These data come from patent US8415469B2, “Compounds and methods for kinase modulation, and indications therefor” (Plexxikon Inc., priority 2005, dated 2013).
